# Reference: patent US4868299A, “Antibacterially active pyrido-benzothiazine derivatives with long-term action” (Mediolanum Farmaceutici Srl, priority 1986, dated 1989)
# Where two headings read alike, the source gives them in different places.
# What was measured:
# [1] = system: Enterobacter 2653; assay: in-vitro antibacterial activity, MIC by agar dilution (multipoint inoculator); format: cell-based; details: Enterobacter 2653; 18 hours at 37° C; read-out: Minimum Inhibiting Concentration (MIC)
# Experimental: (§1) The antibacterial activity of the compounds according to the invention was determined "in vitro" on pathogenic strains of recent clinical isolation by testing agar dilutions using a multipoint inoculator (Denley Techn. Ltd., England).
# (§2) The culture medium used is isosensitest agar (Oxoid), in a quantity of 20 ml in a Petri capsule. The compounds to be tested were dissolved at various dilutions and incorporated in agar.
# (§3) The bacterial inoculum, originating from an overnight broth and containing 10^5 colony-forming units per point, was inoculated by a multipoint inoculator. The bacterial growth was evaluated after 18 hours of incubation at 37° C.
# (§4) For comparison purposes, the results relative to compound (XIII) and to nalidixic acid are also reported.
# [2] = system: Proteus 25; assay: as above; format: cell-based; details: Proteus 25; 18 hours at 37° C; read-out: Minimum Inhibiting Concentration (MIC)
# Experimental: as §1, §2, §3, §4
# [3] = system: Serratia 9; assay: as above; format: cell-based; details: Serratia 9; 18 hours at 37° C; read-out: Minimum Inhibiting Concentration (MIC)
# Experimental: as §1, §2, §3, §4
# [4] = system: Citrobacter 118; assay: as above; format: cell-based; details: Citrobacter 118; 18 hours at 37° C; read-out: Minimum Inhibiting Concentration (MIC)
# Experimental: as §1, §2, §3, §4
# [5] = system: Proteus 966; assay: as above; format: cell-based; details: Proteus 966; 18 hours at 37° C; read-out: Minimum Inhibiting Concentration (MIC)
# Experimental: as §1, §2, §3, §4
# [6] = system: Staphylococcus 29; assay: as above; format: cell-based; details: Staphylococcus 29; 18 hours at 37° C; read-out: Minimum Inhibiting Concentration (MIC)
# Experimental: as §1, §2, §3, §4
# [7] = system: Staphylococcus 7; assay: as above; format: cell-based; details: Staphylococcus 7; 18 hours at 37° C; read-out: Minimum Inhibiting Concentration (MIC)
# Experimental: as §1, §2, §3, §4
# [8] = system: Serratia 10; assay: as above; format: cell-based; details: 18 hours at 37° C, read-out: Minimum Inhibiting Concentration (MIC)
# Experimental: as §1, §2, §3, §4
# [9] = system: Escherichia 963; assay: as above; format: cell-based; details: Escherichia 963; 18 hours at 37° C; read-out: Minimum Inhibiting Concentration (MIC)
# Experimental: as §1, §2, §3, §4
# [10] = system: Klebsiella 4; assay: as above; format: cell-based; details: Klebsiella 4; 18 hours at 37° C; read-out: Minimum Inhibiting Concentration (MIC)
# Experimental: as §1, §2, §3, §4
# [11] = system: Pseudomonas 19; assay: as above; format: cell-based; details: Pseudomonas 19; 18 hours at 37° C; read-out: Minimum Inhibiting Concentration (MIC)
# Experimental: as §1, §2, §3, §4
# [12] = system: Citrobacter 120; assay: as above; format: cell-based; details: Citrobacter 120; 18 hours at 37° C; read-out: Minimum Inhibiting Concentration (MIC)
# Experimental: as §1, §2, §3, §4
# [13] = system: Escherichia 15; assay: as above; format: cell-based; details: 18 hours at 37° C, read-out: Minimum Inhibiting Concentration (MIC)
# Experimental: as §1, §2, §3, §4
# [14] = system: Enterobacter 041; assay: as above; format: cell-based; details: Enterobacter 041; 18 hours at 37° C; read-out: Minimum Inhibiting Concentration (MIC)
# Experimental: as §1, §2, §3, §4
# [15] = system: Pseudomonas 22437; assay: as above; format: cell-based; details: 18 hours at 37° C, read-out: Minimum Inhibiting Concentration (MIC)
# Experimental: as §1, §2, §3, §4
# [16] = plasma and tissue concentrations after oral administration to the rat (HPLC); format: in vivo; details: for concentration at 0.5 h: 0.5 hours after treatment; for concentration at 4 h: 4 hours after treatment; for concentration at 15 h: 15 hours after treatment
# Experimental: (§5) The compound (X) was administered orally at a dose of 50 mg/kg to the rat after which the plasma, tissue and urine concentrations were evaluated by the HPLC method, as described hereinafter.
# The plasma and tissues (heart, kidney and liver) were withdrawn from groups of 3 female rats at various times after oral administration.
# (§6) The HPLC determination was made by the following procedure: 2 mg of N-dimethyldiarepam (internal standard), 1 ml of citrate buffer (0.1 M, pH 6.2) and 6 ml of chloroform are added to 1 ml of plasma or to 1 ml of supernatant obtained after centrifuging a homogenized tissue in 3 volumes of physiological solution at 2000 r.p.m. for 5 minutes.
# (§7) After agitating for 20 minutes and centrifuging at 3000 r.p.m. for 5 minutes, the organic phase is separated and dried over a water bath at 70° C.
# (§8) The residue is collected in 50 μl of methanol, and 20 μl of the solution are injected into a HPLC (Gilson) column under the following conditions: column μ Bondopak C-18 ([…], wavelength 245 nm), flow: 0.7 ml/min, mobile phase: (A) 0.1% acetic acid and (B) methanol, gradient: […]
# [17] = urine concentrations after oral administration to the rat (HPLC); format: in vivo; details: 50 mg/kg oral; for Cumulative excretion (urine) / Volume excreted (urine): pool of 6 rats
# Experimental: as §5
# The urine was collected at various times during the 24 hours following administration. The results relative to urine concentrations are summarised in Table 2, and refer to a urine pool obtained form 6 female rates having a weight of about 100 g.
# as §6, §7, §8
# [18] = rat, 50 mg/kg oral, heart, read-out: Heart concentration
# [19] = rat, 50 mg/kg oral, kidney, read-out: Kidney concentration
# [20] = rat, 50 mg/kg oral, liver, read-out: Liver concentration
# [21] = rat, 50 mg/kg oral, plasma, read-out: Plasma concentration
compound,measurement,setting,value
"CC1Cn2cc(C(=O)O)c(=O)c3cc(F)c(N4CCN(C)CC4)c(c32)S1 (centres unmarked) [(X), 9-fluoro-10[N(N'-methyl)piperazinyl]-2-methyl-7-oxo-2,3-dihydro-7H-pyrido[1,2,3-de][1,4]benzothiazine-6-carboxylic acid]",MIC,[1],0.5 µg/mL
same,MIC,[2],8 µg/mL
same,MIC,[3],8 µg/mL
same,MIC,[4],0.5 µg/mL
same,MIC,[5],8 µg/mL
same,MIC,[6],2 µg/mL
same,MIC,[7],2 µg/mL
same,MIC,[8],2 µg/mL
same,MIC,[9],2 µg/mL
same,MIC,[10],0.25 µg/mL
same,MIC,[11],16 µg/mL
same,MIC,[12],0.25 µg/mL
same,MIC,[13],0.25 µg/mL
same,MIC,[14],0.25 µg/mL
same,MIC,[15],16 µg/mL
same,"absorption after oral administration, in words","[16]; rat, 50 mg/kg oral",rapidly absorbed after oral administration to induce high tissue levels
same,"heart, kidney and liver concentrations relative to plasma, in words","[16]; rat, 50 mg/kg oral",always greater than those observed in the plasma
same,"tissue bioavailability, in words","[16]; rat, 50 mg/kg oral",excellent tissue bioavailability
same,"concentrations relative to the MIC values, in words","[16]; rat, 50 mg/kg oral, 15 hours after administration",high concentrations relative to the MIC values are still present
same,concentration at 0.5 h,[16]; [18],19200 ng/g
same,concentration at 4 h,[16]; [18],18600 ng/g
same,concentration at 15 h,[16]; [18],4630 ng/g
same,concentration at 0.5 h,[16]; [19],34400 ng/g
same,concentration at 4 h,[16]; [19],38700 ng/g
same,concentration at 15 h,[16]; [19],5900 ng/g
same,concentration at 0.5 h,[16]; [20],62900 ng/g
same,concentration at 4 h,[16]; [20],34300 ng/g
same,concentration at 15 h,[16]; [20],9370 ng/g
same,concentration at 0.5 h,[16]; [21],10.2 µg/mL
same,concentration at 4 h,[16]; [21],8.1 µg/mL
same,concentration at 15 h,[16]; [21],3.5 µg/mL
same,"urine concentrations, in words",[17],lasting and high
same,Cumulative excretion (urine),[17]; 0-1 hours after treatment,0.50 mg
same,Volume excreted (urine),[17]; 0-1 hours after treatment,5.5 mL
same,Cumulative excretion (urine),[17]; 1-2 hours after treatment,1.33 mg
same,Volume excreted (urine),[17]; 1-2 hours after treatment,3.2 mL
same,Cumulative excretion (urine),[17]; 2-4 hours after treatment,2.05 mg
same,Volume excreted (urine),[17]; 2-4 hours after treatment,7.2 mL
same,Cumulative excretion (urine),[17]; 4-8 hours after treatment,3.13 mg
same,Volume excreted (urine),[17]; 4-8 hours after treatment,6.0 mL
same,Cumulative excretion (urine),[17]; 8-24 hours after treatment,8.17 mg
same,Volume excreted (urine),[17]; 8-24 hours after treatment,28.0 mL
same,concentration at 1 h,"[17]; urine, 0-1 hours after treatment",90 µg/mL
same,concentration at 2 h,"[17]; urine, 1-2 hours after treatment",260 µg/mL
same,concentration at 4 h,"[17]; urine, 2-4 hours after treatment",100 µg/mL
same,concentration at 8 h,"[17]; urine, 4-8 hours after treatment",180 µg/mL
same,concentration at 24 h,"[17]; urine, 8-24 hours after treatment",180 µg/mL
same,dose excreted at 24 h,"[17]; urine, within 24 hours, of the orally administered dose, read-out: percentage urine excretion of the non-metabolized product",~27%
"CC1Cn2cc(C(=O)O)c(=O)c3cc(F)c(N4CCNCC4)c(c32)S1 (centres unmarked) [(XI), 9-fluoro-10[N-piperazinyl]-2-methyl-7-oxo-2,3-dihydro-7H-pyrido[1,2,3-de][1,4]benzothiazine-6-carboxylic acid]","results of the tests operating in accordance with the described procedures, in words","[16]; rat, in vivo",analogous to the tests carried out with compound (X)
"CC1Cn2cc(C(=O)O)c(=O)c3cc(F)c(N4CCCC4)c(c32)S1 (centres unmarked) [(XII), 9-fluoro-10[N-pyrrolidine]-2-methyl-7-oxo-2,3-dihydro-7H-pyrido[1,2,3-de][1,4]benzothiazine-6-carboxylic acid]",MIC,[1],16 µg/mL
same,MIC,[2],2 µg/mL
same,MIC,[3],16 µg/mL
same,MIC,[4],16 µg/mL
same,MIC,[5],2 µg/mL
same,MIC,[6],0.25 µg/mL
same,MIC,[7],0.25 µg/mL
same,MIC,[8],2 µg/mL
same,MIC,[9],16 µg/mL
same,MIC,[10],2 µg/mL
same,MIC,[11],2 µg/mL
same,MIC,[12],2 µg/mL
same,MIC,[13],2 µg/mL
same,MIC,[14],2 µg/mL
same,MIC,[15],16 µg/mL
same,"results of the tests operating in accordance with the described procedures, in words",[16]; compared with compound (X),analogous to the tests carried out with compound (X)
